Experimental data: ChEMBL document CHEMBL1201862, “PubChem BioAssay data set” (2004)
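Cells were grown in 96-well plates and exposed to each compound for 48 hours at five concentrations; endpoints were interpolated linearly between bracketing concentrations, or set to the highest concentration if not reached. GI50 marks 50% less growth.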 The source made the active and inactive calls. Rule as the data show it: active = GI50 up to about 1.1 µM and inactive = higher.

Tests used:
Assay in all cases: NCI anticancer screen, dose series, 48 h
[1] = tested on: NCI/ADR-RES
[2] = tested on: UO-31
[3] = tested on: SF-268
[4] = tested on: ACHN
[5] = tested on: NCI-H522
[6] = tested on: IGROV-1
[7] = tested on: SK-MEL-5
[8] = tested on: OVCAR-5
[9] = tested on: COLO 205
[10] = tested on: PC-3
[11] = tested on: Hs-578T
[12] = tested on: M14
[13] = tested on: U-251
[14] = tested on: SK-MEL-2
[15] = tested on: KM12
[16] = tested on: K562
[17] = tested on: SW-620
[18] = tested on: MDA-MB-435
[19] = tested on: SF-539
[20] = tested on: OVCAR-4
[21] = tested on: Malme-3M
[22] = tested on: SK-MEL-28
[23] = tested on: EKVX
[24] = tested on: HCT-15
[25] = tested on: MOLT-4
[26] = tested on: MCF7
[27] = tested on: RXF 393
[28] = tested on: LOX IMVI
[29] = tested on: SR
[30] = tested on: TK-10
[31] = tested on: SNB-19
[32] = tested on: RPMI-8226
[33] = tested on: BT-549
[34] = tested on: SK-OV-3
[35] = tested on: OVCAR-8
[36] = tested on: NCI-H460
[37] = tested on: CAKI-1
[38] = tested on: DU-145
[39] = tested on: CCRF-CEM
[40] = tested on: SF-295
[41] = tested on: A549
[42] = tested on: HCT-116
[43] = tested on: HT-29
[44] = tested on: OVCAR-3
[45] = tested on: SNB-75
[46] = tested on: UACC-257
[47] = tested on: UACC-62
[48] = tested on: MDA-MB-231
[49] = tested on: T47D
[50] = tested on: 786-0
[51] = tested on: SN12C
[52] = tested on: NCI-H23
[53] = tested on: HOP-62
[54] = tested on: NCI-H226
[55] = tested on: HOP-92
[56] = tested on: HL-60
[57] = tested on: A498
[58] = tested on: HCC 2998

## O=S(=O)(Nc1ccc2ccc3cccc4ccc1c2c34)c1ccccc1
[1]
  GI50: 35.1 µM (inactive)
[2]
  GI50: 35.1 µM (inactive)
[3]
  GI50: 43.6 µM (inactive)
[4]
  GI50: 36.1 µM (inactive)
[5]
  GI50: 4.27 µM (inactive)
[6]
  GI50: 18.7 µM (inactive)
[7]
  GI50: 14.1 µM (inactive)
[8]
  GI50: > 100 µM (inactive)
[9]
  GI50: 29.5 µM (inactive)
[10]
  GI50: 14.3 µM (inactive)
[11]
  GI50: 28.1 µM (inactive)
[12]
  GI50: > 100 µM (inactive)
[13]
  GI50: 50.4 µM (inactive)
[14]
  GI50: 70.5 µM (inactive)
[15]
  GI50: 9.98 µM (inactive)
[16]
  GI50: 6.7 µM (inactive)
[17]
  GI50: 30.1 µM (inactive)
[18]
  GI50: 3.82 µM (inactive)
[19]
  GI50: 25.6 µM (inactive)
[20]
  GI50: > 100 µM (inactive)
[21]
  GI50: 38.9 µM (inactive)
[22]
  GI50: > 100 µM (inactive)
[23]
  GI50: > 100 µM (inactive)
[24]
  GI50: 12.9 µM
[25]
  GI50: 8.77 µM (inactive)
[26]
  GI50: 43.4 µM (inactive)
[27]
  GI50: > 100 µM (inactive)
[28]
  GI50: 40.6 µM (inactive)
[29]
  GI50: 2.67 µM (inactive)
[30]
  GI50: 38.2 µM (inactive)
[31]
  GI50: 85.5 µM (inactive)
[32]
  GI50: 6.34 µM (inactive)
[33]
  GI50: > 100 µM (inactive)
[34]
  GI50: 58.3 µM (inactive)
[35]
  GI50: > 100 µM (inactive)
[36]
  GI50: 37.3 µM (inactive)
[37]
  GI50: 6 µM (inactive)
[38]
  GI50: > 100 µM (inactive)
[39]
  GI50: 14.1 µM (inactive)
[40]
  GI50: 10.4 µM (inactive)
[41]
  GI50: 52.8 µM (inactive)
[42]
  GI50: 30.8 µM (inactive)
[43]
  GI50: 49.2 µM (inactive)
[44]
  GI50: 8.26 µM (inactive)
[45]
  GI50: 55.7 µM (inactive)
[46]
  GI50: 58.7 µM (inactive)
[47]
  GI50: 8.95 µM (inactive)
[48]
  GI50: 30.8 µM (inactive)
[49]
  GI50: 28.4 µM (inactive)
[50]
  GI50: 29 µM (inactive)
[51]
  GI50: 15 µM (inactive)
[52]
  GI50: 96.6 µM (inactive)
[53]
  GI50: 33.3 µM (inactive)
[54]
  GI50: 19.4 µM (inactive)
[55]
  GI50: 4.84 µM (inactive)
[56]
  GI50: 37.7 µM (inactive)

## CC1=C(C(=O)NCCc2ccccc2)CC(C(=O)NCCc2ccccc2)=C(C)N1
[1]
  GI50: > 100 µM (inactive)
[2]
  GI50: 65.8 µM (inactive)
[3]
  GI50: 61 µM (inactive)
[4]
  GI50: 55.3 µM (inactive)
[5]
  GI50: 47.4 µM (inactive)
[6]
  GI50: 54.8 µM (inactive)
[8]
  GI50: > 100 µM (inactive)
[9]
  GI50: > 100 µM (inactive)
[10]
  GI50: 37.2 µM (inactive)
[57]
  GI50: 33.2 µM (inactive)
[11]
  GI50: 29.9 µM (inactive)
[12]
  GI50: > 100 µM (inactive)
[13]
  GI50: > 100 µM (inactive)
[14]
  GI50: > 100 µM (inactive)
[15]
  GI50: 38.3 µM (inactive)
[16]
  GI50: 44.3 µM (inactive)
[17]
  GI50: > 100 µM (inactive)
[18]
  GI50: > 100 µM (inactive)
[19]
  GI50: > 100 µM (inactive)
[20]
  GI50: > 100 µM (inactive)
[23]
  GI50: 65.3 µM (inactive)
[24]
  GI50: > 100 µM
[25]
  GI50: 74 µM (inactive)
[26]
  GI50: > 100 µM (inactive)
[27]
  GI50: 35.8 µM (inactive)
[28]
  GI50: > 100 µM (inactive)
[58]
  GI50: > 100 µM (inactive)
[30]
  GI50: > 100 µM (inactive)
[31]
  GI50: 6.1 µM (inactive)
[32]
  GI50: 45.7 µM (inactive)
[33]
  GI50: > 100 µM (inactive)
[34]
  GI50: > 100 µM (inactive)
[35]
  GI50: > 100 µM (inactive)
[36]
  GI50: 82.4 µM (inactive)
[37]
  GI50: > 100 µM (inactive)
[38]
  GI50: > 100 µM (inactive)
[39]
  GI50: 27.8 µM (inactive)
[40]
  GI50: > 100 µM (inactive)
[41]
  GI50: > 100 µM (inactive)
[42]
  GI50: 74.5 µM (inactive)
[43]
  GI50: 61.1 µM (inactive)
[44]
  GI50: 88.3 µM (inactive)
[45]
  GI50: 14.3 µM (inactive)
[46]
  GI50: > 100 µM (inactive)
[47]
  GI50: > 100 µM (inactive)
[48]
  GI50: > 100 µM (inactive)
[49]
  GI50: 64.6 µM (inactive)
[50]
  GI50: 87.5 µM (inactive)
[51]
  GI50: > 100 µM (inactive)
[52]
  GI50: > 100 µM (inactive)
[53]
  GI50: 75.3 µM (inactive)
[54]
  GI50: > 100 µM (inactive)
[55]
  GI50: 49.3 µM (inactive)
[56]
  GI50: 31.7 µM (inactive)

## Oc1[nH]c(Nc2cccc(Cl)c2)nc2ncnc1-2
[1]
  GI50: > 100 µM (inactive)
[2]
  GI50: > 100 µM (inactive)
[3]
  GI50: > 100 µM (inactive)
[4]
  GI50: > 100 µM (inactive)
[5]
  GI50: > 100 µM (inactive)
[6]
  GI50: 80.4 µM (inactive)
[7]
  GI50: > 100 µM (inactive)
[8]
  GI50: > 100 µM (inactive)
[9]
  GI50: > 100 µM (inactive)
[10]
  GI50: 25.4 µM (inactive)
[57]
  GI50: > 100 µM (inactive)
[11]
  GI50: 68.5 µM (inactive)
[12]
  GI50: 95.7 µM (inactive)
[13]
  GI50: > 100 µM (inactive)
[14]
  GI50: 86.3 µM (inactive)
[15]
  GI50: > 100 µM (inactive)
[16]
  GI50: 86.5 µM (inactive)
[17]
  GI50: > 100 µM (inactive)
[18]
  GI50: 83.8 µM (inactive)
[19]
  GI50: 82.8 µM (inactive)
[20]
  GI50: > 100 µM (inactive)
[21]
  GI50: > 100 µM (inactive)
[23]
  GI50: > 100 µM (inactive)
[24]
  GI50: > 100 µM
[25]
  GI50: 38.6 µM (inactive)
[26]
  GI50: > 100 µM (inactive)
[27]
  GI50: > 100 µM (inactive)
[28]
  GI50: 80.7 µM (inactive)
[29]
  GI50: > 100 µM (inactive)
[58]
  GI50: 76.6 µM (inactive)
[30]
  GI50: > 100 µM (inactive)
[31]
  GI50: > 100 µM (inactive)
[32]
  GI50: > 100 µM (inactive)
[33]
  GI50: > 100 µM (inactive)
[34]
  GI50: > 100 µM (inactive)
[35]
  GI50: > 100 µM (inactive)
[36]
  GI50: > 100 µM (inactive)
[37]
  GI50: > 100 µM (inactive)
[38]
  GI50: 74.6 µM (inactive)
[39]
  GI50: 71.4 µM (inactive)
[40]
  GI50: > 100 µM (inactive)
[41]
  GI50: > 100 µM (inactive)
[42]
  GI50: 62.4 µM (inactive)
[43]
  GI50: 53.7 µM (inactive)
[44]
  GI50: 48.4 µM (inactive)
[45]
  GI50: 30.5 µM (inactive)
[46]
  GI50: > 100 µM (inactive)
[47]
  GI50: 63.7 µM (inactive)
[48]
  GI50: 30.8 µM (inactive)
[49]
  GI50: 44.9 µM (inactive)
[50]
  GI50: > 100 µM (inactive)
[51]
  GI50: > 100 µM (inactive)
[52]
  GI50: > 100 µM (inactive)
[53]
  GI50: 28.1 µM (inactive)
[54]
  GI50: > 100 µM (inactive)
[55]
  GI50: 83 µM (inactive)
[56]
  GI50: 79.8 µM (inactive)
